Assays:
Assay type in all cases: physicochemical
[1] = Physical state of compound of formula (I) in melt extrudates by XRPD
Description: X-Ray Powder Diffraction (XRPD) Analysis
• Principle: X-ray powder diffraction (XRPD) in reflection geometry • Equipment: Powder diffractomer e.g. type Bruker D8 Discover • Procedure: Place the test substance on the specimen holder. Record the X-ray diffraction pattern between 5° and 40° (2-theta) with Cu Kα radiation (1.5406 Å) in reflection geometry using the following conditions • Detector type: Lynx Eye • High voltage: 40 kV • Current: 40 mA • Scan type: continuous • Step time: 0.3 s • Step size: 0.016° • Soller slit: 2.5° • Slits: 0.6 mm • Method: A part of the sample is used without preparation for the measurement. […] Record the X-ray diffraction pattern between 5° and 40° (2Theta) with CuKα radiation. • Evaluation: Observe the recorded diffractogram and report any detectable diffraction peak. […]
(§1) Melt extrudates were prepared according to example 1. The kinetic solubility and the physical state of the compound of formula (I) were determined. […] Kinetic solubility were determined by adding melt extrudates equivalent to 100 mg of the compound of formula (I) in pH 6.8 phosphate buffer using a rotating bottle at 50 rpm and at a temperature of 37° C. The physical state (crystalline or amorphous) was determined by XRPD (discrete peaks indicating some of the material being in a crystalline state, absence of peaks indicating amorphous state).

[2] = Chemical compatibility of the compound of formula (I) with polymers: melt extrudates analysed by HPLC for total impurity; conditions: hot melt extrusion
Source text: Assay, Degradation Products/Impurities by HPLC
Principle: RP HPLC with UV detection
• Acetonitrile (HPLC grade, e.g. Merck) • Water (e.g. from Milli-Q instrument) • Methanol (Analytical grade, e.g. Sigma-Aldrich or equivalent) • Solvent: Water/acetonitrile 40/60 (v/v)
• Apparatus: e.g. HP 1290 (UPLC) • Column: Waters Acquity BEH C18 (Length 100 mm, internal diameter 2.1 mm or equivalent column and particle size 1.7 μm)
• Mobile Phase: • A: Water/Acetonitrile/TFA (95:5:0.05 v/v/v) • B: Water/Acetonitrile/TFA (5:95:0.05 v/v/v)
Column temperature: 30° C. Auto-sampler temperature: Ambient Needle wash: Methanol/water 80/20 (v/v) Injection volume: • 2 μl of the test and reference solutions, equivalent to about • 0.6 μg of drug substance compound of formula (I) in the reference solution Run time: 18 min […]
The compatibility of the compound of formula (I) with various polymers was tested by preparing melt extrudates according to the manufacturing process as described in example 1 and analyzing the resulting melt extrudates by HPLC to determine the amount of degradation or related products (“impurities”) of the compound of formula (I). […] The amount of total impurities was assessed according to the guideline that the sum of specified and unspecified impurities (herein referred to as total impurity) is preferably not more than (NMT) 0.5%. […]

[3] = Kinetic solubility of melt extrudates (rotating bottle); conditions: aqueous buffer; melt extrudates equivalent to 100 mg compound of formula (I), pH 6.8 phosphate buffer, rotating bottle 50 rpm, 37° C.
Description: • Principle: Measurement of the amount of drug substance solubilized using rotating bottle apparatus. Determination by HPLC/UV method for sample analysis.
• Speed of rotation: 50 rpm • Test medium: […] • Volume of test medium: 75 mL • Temperature: 37±0.5° C. Sampling Time points 5, 10, 15, 20, 25, 30, 45, 60 minutes
Procedure: The concentration maximum is taken as kinetic solubility value.
as §1

Physical state of compound of formula (I) (XRPD) [1]: Crystalline
processing temperature leading to degradation of compound of formula (I) [2]: exceeding 205 °C
solubility kinetic [3]: ~40 µg/mL
SMILES: C[C@H]1OC(=O)N(c2cc(-c3cnc(N)nc3C(F)(F)F)nc(N3CCOCC3)n2)[C@H]1CO [compound of formula (I), (4S,5R)-3-(2′-Amino-2-morpholin-4-yl-4′-trifluoromethyl-[4,5]bipyrimidinyl-6-yl)-4-hydroxymethyl-5-methyl-oxazolidin-2-one]

— patent US20170209455A1, “Solid Pharmaceutical Composition Comprising PI3K-Inhibitor” (NOVARTIS AG, priority 2014, published 2017)
